From ChEMBL document CHEMBL1201862, “PubChem BioAssay data set” (2004)
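These data come from cells grown in 96-well plates and exposed to compound for 48 hours at five concentrations. At the GI50, growth is halved.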 Calls of active or inactive are those of the source. Cut-off read from the data, not from the text of the source: active = GI50 up to about 1.1 µM and inactive = higher.

Experiments:
Test in all cases: inhibition of tumour cell growth, NCI panel, 48 h
Hs-578T = system: Hs-578T
MDA-MB-231 = system: MDA-MB-231
DLD-1 = system: DLD-1
HOP-18 = system: HOP-18
LXFL 529 = system: LXFL 529
M19-MEL = system: M19-MEL
XF498 = system: XF498
DMS-114 = system: DMS-114

SMILES | GI50 (Hs-578T) | GI50 (MDA-MB-231) | also measured
O=S(=O)(O)c1ccc2cc(/N=N\c3cc(S(=O)(=O)O)c4cccnc4c3O)ccc2c1 | > 100 µM (inactive) | > 100 µM (inactive) | 
COc1cc(-c2cc(O)c3cc4c(cc3n2)OCO4)cc(OC)c1OC |  |  | GI50 (DLD-1): > 100 µM (inactive); GI50 (HOP-18): 72.8 µM (inactive); GI50 (LXFL 529): > 100 µM (inactive); GI50 (M19-MEL): > 100 µM (inactive); GI50 (XF498): 29.8 µM (inactive)
COc1ccc(C(c2ccc(C(C)C)cc(=O)c2O)c2ccc3cccnc3c2O)cc1 (stereo unspecified) |  |  | GI50 (DLD-1): 0.45 µM (active); GI50 (DMS-114): 0.173 µM (active); GI50 (LXFL 529): 0.506 µM (active); GI50 (M19-MEL): 0.484 µM (active); GI50 (XF498): 2.17 µM (inactive)
Cc1ccnn1CCc1ccc(Cl)cc1Cl | 22.9 µM (inactive) | 29.3 µM (inactive) | 
CCCCCC(/C=C/c1ncccc1OCCCCCC(=O)O)=N\NC1=NCCN1 |  |  | GI50 (DMS-114): 45.2 µM (inactive); GI50 (LXFL 529): 47.2 µM (inactive); GI50 (M19-MEL): > 100 µM (inactive); GI50 (XF498): 27.3 µM (inactive)
CCOC(=O)c1c(-c2cccc(Cl)c2)c(C(=O)OC)c(C)c2sc(C=O)nc12 | 21 µM (inactive) | 15.6 µM (inactive) | 
CN(C)c1nc(-c2ccccc2)c(C(=O)c2c[nH]c3ccccc23)s1 | 4.75 µM (inactive) | 14.5 µM (inactive) | 
CN(C)N1C(=O)S/C(=C\c2ccc([N+](=O)[O-])cc2)C1=O | > 100 µM (inactive) | > 100 µM (inactive) | 
CCOP(=O)(OCC)C(Nc1ccc(C(=O)O)cc1)c1ccc(C(Nc2ccc(C(=O)O)cc2)P(=O)(OCC)OCC)cc1 (stereo unspecified) | > 100 µM (inactive) | > 100 µM (inactive) | 
CCOC(=O)/C(SC#N)=C(/N)N1CCCC1 | > 100 µM (inactive) | > 100 µM (inactive) | 
CC1(C)C=CC(=O)C(O)C(C)(C)C1=O (stereo unspecified) | 28.8 µM (inactive) | > 100 µM (inactive) | 
N#Cc1c(-c2ccc([N+](=O)[O-])cc2)c(C#N)c(=O)n(NS(=O)(=O)c2ccccc2)c1O |  | > 100 µM (inactive) | 
Clc1ccccc1C(n1ncc2ccccc21)n1ncc2ccccc21 |  |  | GI50 (DLD-1): 40.5 µM (inactive); GI50 (DMS-114): 31.3 µM (inactive); GI50 (LXFL 529): 37 µM (inactive); GI50 (M19-MEL): 23.1 µM (inactive); GI50 (XF498): 14.5 µM (inactive)
CCC(=O)OCN(C)c1nc(N(C)COC(=O)CC)nc(N(C)COC(=O)CC)n1 | > 100 µM (inactive) | 57.4 µM (inactive) | 
COc1cccc(-c2nc(-c3cnccn3)n(Cc3ccccc3)n2)c1 |  | > 100 µM (inactive) | 
COc1cc(C2C3=C(N=C4SC(C(C)=O)=C(C)N42)c2ccccc2CC3)cc(OC)c1OC (stereo unspecified) | 50.4 µM (inactive) | 49.2 µM (inactive) | 
CN(C)/N=N/c1ccc(NC=O)cc1 |  | > 100 µM (inactive) | 

SMILES | GI50 (Hs-578T) | GI50 (MDA-MB-231) | also measured
O=C1Nc2ccccc2C(=O)/C1=C/NC(=S)NCCc1ccccc1 |  | > 100 µM (inactive) | 
CCOC(=O)CNC(=O)C(CSCc1ccc(Br)cc1)NC(=O)CCC(N)C(=O)OCC (stereo unspecified) | > 50 µM (inactive) | > 50 µM (inactive) | 
O=c1cc(N2CCCC2)[nH]c(=O)n1-c1ccccc1 |  | > 100 µM (inactive) | 
CCC1(O)CC(O)c2c(O)c3c(c(O)c2C1C(=O)OC)C(=O)c1cccc(O)c1C3=O (stereo unspecified) | 4.7 µM (inactive) | 2.9 µM (inactive) | 
Nc1nc(Cl)cc(NCC2(CCO)CCC2)n1 | > 100 µM (inactive) | > 100 µM (inactive) | 
COc1cc(OC2OC(CO)C(O)C(O)C2O)c2c(O)c3c(=O)cc(C)oc3cc2c1 (stereo unspecified) | > 100 µM (inactive) |  | 
Cc1c(S(=O)(=O)c2ccccc2)c(N)n(CCN(C)C)c1C | > 100 µM (inactive) | > 100 µM (inactive) | 
CCc1ccc(COC(=O)C2=C(C)NC(C)=C(C(=O)OCc3ccc(CC)cn3)C2C2=COCCO2)nc1 | 14 µM (inactive) | 14.2 µM (inactive) | 
CNC(=S)N/N=C(\C)c1nc2cccnc2[nH]1 | > 50 µM (inactive) | 42.7 µM (inactive) | 
CN1C(=O)[C@@H]2[C@@H]3c4ccccc4N(S(=O)(=O)C(F)(F)F)[C@@H]3c3[nH]c4ccccc4c3[C@@H]2C1=O | 19.7 µM (inactive) | 13.2 µM (inactive) | 
Cc1cc(N(CCC#N)CCC#N)ccc1/C=C(\NC(=O)/C=C/c1ccccc1)C(=O)Nc1ccccc1Cl |  |  | GI50 (DLD-1): > 100 µM (inactive); GI50 (DMS-114): > 100 µM (inactive); GI50 (LXFL 529): > 100 µM (inactive); GI50 (M19-MEL): > 100 µM (inactive)
Oc1ccc(C(=C(Br)c2ccccc2)c2ccc(O)cc2)cc1 | 4.83 µM (inactive) | 10.9 µM (inactive) | 
O=C1C(N2CCNCC2)=C(Cl)C(=O)c2ncccc21 | > 10 µM (inactive) | > 10 µM (inactive) | 
CN1C2CCC1/C(=C/c1cccc3c1OCO3)C(=O)/C2=C\c1cccc2c1OCO2 |  |  | GI50 (DLD-1): > 100 µM (inactive); GI50 (DMS-114): > 100 µM (inactive); GI50 (LXFL 529): > 100 µM (inactive); GI50 (M19-MEL): > 100 µM (inactive); GI50 (XF498): 25.3 µM (inactive)
COC(=O)C1=C(C)N2CCOC2CC1c1ccccc1 (stereo unspecified) |  |  | GI50 (DLD-1): 78.3 µM (inactive); GI50 (DMS-114): > 100 µM (inactive); GI50 (LXFL 529): > 100 µM (inactive); GI50 (M19-MEL): > 100 µM (inactive)
OC[P+](CO)(CO)C12CC3CC(CC(C3)C1)C2 | > 100 µM (inactive) | > 100 µM (inactive) | 
CC(=O)Nc1ccc(C(=O)NN2C(=O)C(Cl)C2c2cccc([N+](=O)[O-])c2)cc1 (stereo unspecified) |  |  | GI50 (DLD-1): > 100 µM (inactive); GI50 (LXFL 529): > 100 µM (inactive); GI50 (M19-MEL): > 100 µM (inactive)
